Where two headings read alike, the source gives them in different places.

The results in this text go back to patent US6761885B1, “Strain of Lactobacillus plantarum and uses thereof” (SCA Hygiene Products AB, priority 1998, dated 2004).

For assay [1], the system named is Lactobacillus plantarum LB931. Briefly: MIC of antibiotics by E-test. The class given is cell-based. The procedure: MIC values of Lactobacillus plantarum LB931 were determined using E-test (Brown et al. J Antimicrob Chemother 1991;27:185-190).
Assay [2] relates to LB931. Put plainly: Sensitivity to antibiotic substances by the SIR system. Also on record: key to Indication: S means sensitive; R strands for resistant. The class given is cell-based, Lactobacillus plantarum. The note with it: for Indication / Zone: SIR system. The procedure:
The sensitivity to antibiotic substances was also determined using the SIR system. In table VI below S means sensitive and R strands for resistant.

Assay [3] has as its system LB931. Put plainly: MIC test for the spermacidal agent Tergitol NP-9. The note with it: for Cfu/ml LB931: 18 h, 37 °C, inoculated 1.0×10^7 cfu. In kind it is cell-based, Lactobacillus plantarum. The procedure:
MIC tests were also carried out for the spermacidal agent Tergitol. LB931 was grown on MRS agar in 5% CO2, 37° C. for 48 h. The bacteria were inoculated in 3 ml MRS broth and incubated for 10 h under the same conditions as previously 1.5% of the culture was reinoculated to 3 ml MRS broth and was incubated under the same conditions for 18 h. NP-9 Tergitol (Sigma, US) Lot 47F0002 was diluted in MRS broth having a temperature of 37° C. (reduced viscosity) to a stock solution of 40%. […] 10 μl bacterial culture was added to each solution. The blank solution was mixed and added to MRS agar plates. The plates were grown in 5% CO2, 37° C. for 48 h for determining the cell density. The rest of the solutions were incubated without mixing in 5% CO2, 37° C. for 18 h. The solution containing 30% and 40% NP-9 were diluted in 37 ° C. MRS broth (reduced viscosity). All solutions were vigorously mixed; diluted in sterile 0.9% NaCl and added to MRS agar plates The plates were incubated in 5% CO2, 37° C. for 48 h for determining cfu/ml.
Inoculated amount of LB931 was 1.0×10^7 .cfu

[4] abbreviates: Lactiplantibacillus plantarum, LB931, E-test, read-out: MIC.

One may read the MIC as the least concentration at which growth counts as inhibited. Consider `COc1cc(Cc2cnc(N)nc2N)cc(OC)c1OC` [Trimetoprim], for which the MIC in assay [1] (E-test) is 0.016 µg/mL.
Turning to `CN(C)[C@@H]1C(=O)C(C(N)=O)=C(O)[C@@]2(O)C(=O)C3=C(O)c4c(O)cccc4[C@@](C)(O)[C@H]3C[C@@H]12` [Tetracyclin], the MIC in assay [1] (E-test) was determined as 2 µg/mL.
With `NC[C@H]1O[C@H](O[C@H]2[C@H](O)[C@@H](O[C@H]3O[C@H](CO)[C@@H](O)[C@H](N)[C@H]3O)[C@H](N)C[C@@H]2N)[C@H](N)C[C@@H]1O` [Tobramycin], in the assay on LB931 [2], the Indication entry is reported as “S” and the Zone is recorded as 32 mm.
`CN[C@H](CC(C)C)C(=O)N[C@H]1C(=O)N[C@@H](CC(N)=O)C(=O)N[C@H]2C(=O)N[C@H]3C(=O)N[C@H](C(=O)N[C@H](C(=O)O)c4cc(O)cc(O)c4-c4cc3ccc4O)[C@H](O)c3ccc(c(Cl)c3)Oc3cc2cc(c3O[C@@H]2O[C@H](CO)[C@@H](O)[C@H](O)[C@H]2O[C@H]2C[C@](C)(N)[C@H](O)[C@H](C)O2)Oc2ccc(cc2Cl)[C@H]1O` [Vancomycin]: the “Sensitivity of LB931 in words” value in assay [1] is reported as “resistant”. The MIC in assay [1] (Lactiplantibacillus plantarum, LB931) is above 256 µg/mL.
On to `C[C@H]1[C@H](NC(=O)/C(=N\OC(C)(C)C(=O)O)c2csc(N)n2)C(=O)N1S(=O)(=O)O` [Aztreonam], for which, in the assay on LB931 [2], the Indication result is given as “R” and the Zone is listed as 0 mm.
Regarding `CCN[C@@H]1C[C@H](N)[C@@H](O[C@H]2OC(CN)=CC[C@H]2N)[C@H](O)[C@H]1O[C@H]1OC[C@](C)(O)[C@H](NC)[C@H]1O` [Netilmycin], in the assay on LB931 [2], the Indication result is “R” and the Zone came to 0 mm.
In the case of Mecillinam/Ampicillin, in the assay on LB931 [2], the Indication result is “S” and the Zone is listed as 41 mm.
With `C[C@@H](O)[C@H]1C(=O)N2C(C(=O)O)=C(SCCN=CN)C[C@H]12` [Imipenem], the MIC in assay [1] (setting [4]) came to 0.016 µg/mL.
Same read-out and setting: under `Cc1ncc([N+](=O)[O-])n1CCO` [Metronidazole] stands above 32 µg/mL.
Consider `CCn1cc(C(=O)O)c(=O)c2ccc(C)nc21` [Nalidixin acid], for which, in the assay on LB931 [2], the “Sensitivity of LB931 in words” value is given as “resistant”, the Indication result is listed as “R” and the Zone was 0 mm.
Regarding Piperacin/Tazobactam, in assay [1] (E-test), the MIC amounted to 2 µg/mL.
`CO/N=C(\C(=O)N[C@@H]1C(=O)N2C(C(=O)O)=C(COC(N)=O)CS[C@H]12)c1ccco1` [Cefuroxime]: the MIC in assay [1] (setting [4]) is 0.38 µg/mL.
Consider Gentamycin, for which the MIC in assay [1] (E-test) came to 0.25 µg/mL.
Take `CC1(C)S[C@@H]2[C@H](NC(=O)[C@H](N)c3ccccc3)C(=O)N2[C@H]1C(=O)O` [Ampicillin]: the MIC in assay [1] (setting [4]) was found to be 0.19 µg/mL.
Take `O=C1CN(/N=C/c2ccc([N+](=O)[O-])o2)C(=O)N1` [Nitrofuantin]: in the assay on LB931 [2], the Indication result is reported as “S” and the Zone is 36 mm.
For `NCC[C@H](O)C(=O)N[C@@H]1C[C@H](N)[C@@H](O[C@H]2O[C@H](CN)[C@@H](O)[C@H](O)[C@H]2O)[C@H](O)[C@H]1O[C@H]1O[C@H](CO)[C@@H](O)[C@H](N)[C@H]1O` [Amikacin], in the assay with LB931 [2], the Indication result is recorded as “S” and the Zone was 30 mm.
Regarding Tergitol NP-9, the “Cfu/ml LB931” value with LB931 [3] (1% Tergitol NP-9 in MRS broth) was 2.5 × 10^9 Cfu/ml; in the assay on LB931 [3] (5% Tergitol NP-9 in MRS broth) it was 2.5 × 10^9 Cfu/ml; in the assay with LB931 [3] (10% Tergitol NP-9 in MRS broth), 1.6 × 10^9 Cfu/ml; with LB931 [3] (20% Tergitol NP-9 in MRS broth), 1.4 × 10^9 Cfu/ml; with LB931 [3] (30% Tergitol NP-9 in MRS broth), 1.0 × 10^9 Cfu/ml; with LB931 [3] (40% Tergitol NP-9 in MRS broth) it was 6.9 × 10^7 Cfu/ml. Further, the “Survival of LB931 in tergitol NP-9 in words” value in the assay with LB931 [3] (up to 40% tergitol NP-9) is listed as “survive well”.
For `CO/N=C(\C(=O)N[C@@H]1C(=O)N2C(C(=O)[O-])=C(C[n+]3cccc4c3CCC4)CS[C@H]12)c1csc(N)n1` [Cefipirome], in the assay with LB931 [2], the Indication entry is reported as “S” and the Zone is on record as 47 mm.
As for `CC(C)(O/N=C(\C(=O)N[C@@H]1C(=O)N2C(C(=O)[O-])=C(C[n+]3ccccc3)CS[C@H]12)c1csc(N)n1)C(=O)O` [Ceftazidime], in the assay with LB931 [2], the Indication result is recorded as “S” and the Zone worked out at 35 mm.
Take `CCn1cc(C(=O)O)c(=O)c2cc(F)c(N3CCNCC3)cc21` [Norfloxacin]: in the assay with LB931 [2], the “Sensitivity of LB931 in words” value is “resistant”, the Indication entry is “R” and the Zone is given as 0 mm.
Regarding `CC(=O)OCC1=C(C(=O)O)N2C(=O)[C@@H](NC(=O)Cc3cccs3)[C@H]2SC1` [Cefalotin], in the assay with LB931 [2], the Indication entry is “S” and the Zone came to 22 mm.
In the case of `CC[C@H]1OC(=O)[C@H](C)[C@@H](O[C@H]2C[C@@](C)(OC)[C@@H](O)[C@H](C)O2)[C@H](C)[C@@H](O[C@@H]2O[C@H](C)C[C@H](N(C)C)[C@H]2O)[C@](C)(O)C[C@@H](C)C(=O)[C@H](C)[C@@H](O)[C@]1(C)O` [Erythromycin], the MIC in assay [1] (setting [4]) worked out at 0.25 µg/mL.
Turning to `CCC[C@@H]1C[C@@H](C(=O)N[C@@H]([C@H]2O[C@H](SC)[C@H](O)[C@@H](O)[C@H]2O)[C@H](C)Cl)N(C)C1` [Clindamycin], in the assay on LB931 [2], the Indication entry is reported as “S” and the Zone amounted to 35 mm.
Regarding `CC1(C)S[C@@H]2[C@H](/N=C/N3CCCCCC3)C(=O)N2[C@H]1C(=O)O` [Mecillinam], in the assay on LB931 [2], the Indication result is recorded as “R” and the Zone was 0 mm.
With `CC1(C)S[C@@H]2[C@H](NC(=O)Cc3ccccc3)C(=O)N2[C@H]1C(=O)O` [Benzylpenicillin], the minimum inhibitory concentration (MIC) in assay [1] (setting [4]) turned out to be 0.5 µg/mL.
For the molecule `CC1=C(C(=O)O)N2C(=O)[C@@H](NC(=O)[C@H](N)c3ccc(O)cc3)[C@H]2SC1` [Cefadroxil], in the assay on LB931 [2], the Indication entry is “S” and the Zone was 24 mm.
Consider `Cc1onc(-c2ccccc2)c1C(=O)N[C@@H]1C(=O)N2[C@@H]1SC(C)(C)[C@@H]2C(=O)O` [Oxacillin], for which, in the assay on LB931 [2], the Indication entry is reported as “R” and the Zone is given as 0 mm.
Taken in the same sequence, the figures for Tri/sulfamethoazole were “S” and 43 mm.
`CO/N=C(\C(=O)N[C@@H]1C(=O)N2C(C(=O)O)=C(COC(C)=O)CS[C@H]12)c1csc(N)n1` [Cefotaxime]: the MIC in assay [1] (setting [4]) stood at 0.094 µg/mL.
